{"source": "PubChem BioAssay AID1259409", "about": "(Chemical Carcinogenesis Research Information System (CCRIS), 2018)", "origin": "cited, not measured here", "tested_on": "rodent chemically induced tumor inhibition, incidence and multiplicity", "assay": "CCRIS tumor inhibitor studies", "data": [{"smiles": "Nc1ncn([C@@H]2O[C@H](CO)[C@@H](O)[C@H]2O)c(=O)n1", "values": [{"measurement": "tumour outcome (control, treated, inhibition, significance)", "setting": "Carcinogen: DIETHYLNITROSAMINE, 55-18-5, Dose [Inhibitor]: 0, 5 MG/KG INJECTED 4, 24, AND 48 HR AFTER EACH CARCINOGEN EXPOSURE (STUDY DURATION: 6 MO), Route [Inhibitor]: INTRAPERITONEAL, Species: RAT, Strain/Sex: BD6/MALE, Target Tissue: Type of Lesion: ESOPHAGUS: TUMOR, Dose [Carcinogen]: 80 MG/KG 1/WK FOR 5 WK", "result": "4/29 (14%), 3/27 (11%), 21%, not calculated"}, {"measurement": "tumour outcome (control, treated, inhibition, significance)", "setting": "Carcinogen: DIETHYLNITROSAMINE, 55-18-5, Dose [Inhibitor]: 0, 5 MG/KG INJECTED 4, 24, AND 48 HR AFTER EACH CARCINOGEN EXPOSURE (STUDY DURATION: 6 MO), Route [Inhibitor]: INTRAPERITONEAL, Species: RAT, Strain/Sex: BD6/MALE, Target Tissue: Type of Lesion: LIVER: TUMOR, Dose [Carcinogen]: 80 MG/KG 1/WK FOR 5 WK", "result": "15/29 (52%), 25/27 (93%), -79%, not calculated"}, {"measurement": "tumour outcome (control, treated, inhibition, significance)", "setting": "Carcinogen: DIETHYLNITROSAMINE, 55-18-5, Dose [Inhibitor]: 0, 10 MG/KG INJECTED 4, 24, AND 48 HR AFTER EACH CARCINOGEN EXPOSURE (STUDY DURATION: 6 MO), Route [Inhibitor]: INTRAPERITONEAL, Species: RAT, Strain/Sex: BD6/MALE, Target Tissue: Type of Lesion: ESOPHAGUS: TUMOR, Dose [Carcinogen]: 80 MG/KG 1/WK FOR 5 WK", "result": "4/29 (14%), 0/7 (0%), 100%, not calculated"}, {"measurement": "tumour outcome (control, treated, inhibition, significance)", "setting": "Carcinogen: DIETHYLNITROSAMINE, 55-18-5, Dose [Inhibitor]: 0, 10 MG/KG INJECTED 4, 24, AND 48 HR AFTER EACH CARCINOGEN EXPOSURE (STUDY DURATION: 6 MO), Route [Inhibitor]: INTRAPERITONEAL, Species: RAT, Strain/Sex: BD6/MALE, Target Tissue: Type of Lesion: LIVER: TUMOR, Dose [Carcinogen]: 80 MG/KG 1/WK FOR 5 WK", "result": "15/29 (52%), 6/7 (86%), -65%, not calculated"}]}, {"smiles": "O=C(/C=C/c1ccc(O)c(C2C(c3ccc(O)cc3)Oc3cc(O)ccc3C2c2cc(C3OC(c4ccc(O)cc4)C(C(=O)c4ccc(O)cc4O)C3Cc3ccc(O)cc3)c(O)cc2O)c1)c1ccc(O)cc1O", "note": "(stereo not drawn)", "values": [{"measurement": "tumour outcome (control, treated, inhibition, significance)", "setting": "Carcinogen: 7,12-DIMETHYLBENZ[A]ANTHRACENE, 57-97-6, Dose [Inhibitor]: 0, 16 NMOL 2/WK 1 HR PRIOR TO EACH PROMOTER DOSE FOR 20 WK (STUDY DURATION: 20 WK), Route [Inhibitor]: DERMAL, Species: MOUSE, Strain/Sex: ICR/FEMALE, Target Tissue: Type of Lesion: SKIN: TUMOR, Dose [Carcinogen]: 0.19 UMOL ONCE, Promoter: 12-0-TETRADECANOYLPHORBOL-13-ACETATE, 16561-29-8", "result": "70%, 45%, 36%, not calculated"}]}, {"smiles": "C[C@@]12CCc3occc3[C@H]1CC[C@@]13C[C@@H](CC[C@H]12)[C@@](O)(CO)C3", "values": [{"measurement": "tumour outcome (control, treated, inhibition, significance)", "setting": "Carcinogen: 7,12-DIMETHYLBENZ[A]ANTHRACENE, 57-97-6, Dose [Inhibitor]: 0, 0.2 G/KG OF DIET OF 50:50 MIXTURE OF KAHWEOL AND CAFESTOL FOR 14 WK BEGINNING 1 WK PRIOR TO CARCINOGEN TREATMENT (STU, Route [Inhibitor]: ORAL, Species: HAMSTER, Strain/Sex: SYRIAN/FEMALE, Target Tissue: Type of Lesion: BUCCAL POUCH: TUMOR, Dose [Carcinogen]: 0.5% SOLUTION IN MINERAL OIL PAINTED ON LEFT BUCCAL POUCH 3/WK FOR 13 WK, Promoter: NONE USED", "result": "14/14 (100%), 14/14 (100%), 0%, not significant"}, {"measurement": "tumour outcome (control, treated, inhibition, significance)", "setting": "Carcinogen: 7,12-DIMETHYLBENZ[A]ANTHRACENE, 57-97-6, Dose [Inhibitor]: 0, 2 G/KG OF DIET OF 50:50 MIXTURE OF KAHWEOL AND CAFESTOL FOR 14 WK BEGINNING 1 WK PRIOR TO CARCINOGEN TREATMENT (STUDY, Route [Inhibitor]: ORAL, Species: HAMSTER, Strain/Sex: SYRIAN/FEMALE, Target Tissue: Type of Lesion: BUCCAL POUCH: TUMOR, Dose [Carcinogen]: 0.5% SOLUTION IN MINERAL OIL PAINTED ON LEFT BUCCAL POUCH 3/WK FOR 13 WK, Promoter: NONE USED", "result": "14/14 (100%), 14/15 (93%), 7%, not significant"}]}, {"smiles": "c1ccc2c(c1)-c1cccc3cccc-2c13", "values": [{"measurement": "tumour outcome (control, treated, inhibition, significance)", "setting": "Carcinogen: BENZO[A]PYRENE, 50-32-8, Dose [Inhibitor]: 40 UG IN 0.1 ML ACETONE 3/WK ADMINISTERED SIMULTANEOUSLY WITH CARCINOGEN FOR DURATION OF STUDY (STUDY DURATION: 440 D), Route [Inhibitor]: DERMAL, Species: MOUSE, Strain/Sex: ICR/FEMALE, Target Tissue: Type of Lesion: SKIN: PAPILLOMA, Dose [Carcinogen]: 5 UG IN 0.1 ML ACETONE 3/WK FOR DURATION OF STUDY, Promoter: NONE USED", "result": "16/50 (32%), 39/50 (78%), -144%, not calculated"}, {"measurement": "tumour outcome (control, treated, inhibition, significance)", "setting": "Carcinogen: BENZO[A]PYRENE, 50-32-8, Dose [Inhibitor]: 40 UG IN 0.1 ML ACETONE 3/WK ADMINISTERED SIMULTANEOUSLY WITH CARCINOGEN FOR DURATION OF STUDY (STUDY DURATION: 440 D), Route [Inhibitor]: DERMAL, Species: MOUSE, Strain/Sex: ICR/FEMALE, Target Tissue: Type of Lesion: SKIN: SQUAMOUS CARCINOMA, Dose [Carcinogen]: 5 UG IN 0.1 ML ACETONE 3/WK FOR DURATION OF STUDY, Promoter: NONE USED", "result": "12/50 (24%), 37/50 (74%), -208%, not calculated"}]}, {"smiles": "O[C@@H](CS)[C@@H](O)CS", "values": [{"measurement": "tumour outcome (control, treated, inhibition, significance)", "setting": "Carcinogen: TRANS-5-AMINO-3-[2-(5-NITRO-2-FURYL)VINYL]-1,2,4-OXADIAZOLE;SQL8506, 28754-68-9, Carcinogen: TRANS-5-AMINO-3-[2-(5-NITRO-2-FURYL)VINYL]-1,2,4-OXADIAZOLE;SQL8506, 28754-68-9, Dose [Inhibitor]: 100 MG/KG 16 HR BEFORE THE 1ST CARCINOGEN DOSE FOLLOWED BY ADDITIONAL INJECTIONS IMMEDIATELY BEFORE EACH DOSE OF CARCINO, Route [Inhibitor]: INTRAPERITONEAL, Species: MOUSE, Strain/Sex: CD-1/FEMALE, Target Tissue: Type of Lesion: HEMATOPOIETIC SYSTEM: MYELOID LEUKEMIA, Dose [Carcinogen]: 1 G/KG 2/D FOR 5 D EVERY 4 WK FOR 3 COURSES OF TREATMENT, Promoter: NONE USED", "result": "7/137 (5%), 0/30 (0%), 100%, not calculated"}, {"measurement": "tumour outcome (control, treated, inhibition, significance)", "setting": "Carcinogen: TRANS-5-AMINO-3-[2-(5-NITRO-2-FURYL)VINYL]-1,2,4-OXADIAZOLE;SQL8506, 28754-68-9, Carcinogen: TRANS-5-AMINO-3-[2-(5-NITRO-2-FURYL)VINYL]-1,2,4-OXADIAZOLE;SQL8506, 28754-68-9, Dose [Inhibitor]: 100 MG/KG 16 HR BEFORE THE 1ST CARCINOGEN DOSE FOLLOWED BY ADDITIONAL INJECTIONS IMMEDIATELY BEFORE EACH DOSE OF CARCINO, Route [Inhibitor]: INTRAPERITONEAL, Species: MOUSE, Strain/Sex: CD-1/FEMALE, Target Tissue: Type of Lesion: LYMPHOID TISSUE: NONTHYMIC LYMPHOMA, Dose [Carcinogen]: 1 G/KG 2/D FOR 5 D EVERY 4 WK FOR 3 COURSES OF TREATMENT, Promoter: NONE USED", "result": "8/137 (6%), 2/30 (7%), -17%, not calculated"}, {"measurement": "tumour outcome (control, treated, inhibition, significance)", "setting": "Carcinogen: TRANS-5-AMINO-3-[2-(5-NITRO-2-FURYL)VINYL]-1,2,4-OXADIAZOLE;SQL8506, 28754-68-9, Carcinogen: TRANS-5-AMINO-3-[2-(5-NITRO-2-FURYL)VINYL]-1,2,4-OXADIAZOLE;SQL8506, 28754-68-9, Dose [Inhibitor]: 100 MG/KG 16 HR BEFORE THE 1ST CARCINOGEN DOSE FOLLOWED BY ADDITIONAL INJECTIONS IMMEDIATELY BEFORE EACH DOSE OF CARCINO, Route [Inhibitor]: INTRAPERITONEAL, Species: MOUSE, Strain/Sex: CD-1/FEMALE, Target Tissue: Type of Lesion: LYMPHOID TISSUE: THYMIC LYMPHOMA, Dose [Carcinogen]: 1 G/KG 2/D FOR 5 D EVERY 4 WK FOR 3 COURSES OF TREATMENT, Promoter: NONE USED", "result": "22/137 (16%), 4/30 (13%), 19%, not calculated"}, {"measurement": "tumour outcome (control, treated, inhibition, significance)", "setting": "Carcinogen: TRANS-5-AMINO-3-[2-(5-NITRO-2-FURYL)VINYL]-1,2,4-OXADIAZOLE;SQL8506, 28754-68-9, Carcinogen: TRANS-5-AMINO-3-[2-(5-NITRO-2-FURYL)VINYL]-1,2,4-OXADIAZOLE;SQL8506, 28754-68-9, Dose [Inhibitor]: 100 MG/KG 16 HR BEFORE THE 1ST CARCINOGEN DOSE FOLLOWED BY ADDITIONAL INJECTIONS IMMEDIATELY BEFORE EACH DOSE OF CARCINO, Route [Inhibitor]: INTRAPERITONEAL, Species: MOUSE, Strain/Sex: CD-1/FEMALE, Target Tissue: Type of Lesion: STOMACH: SQUAMOUS CARCINOMA, Dose [Carcinogen]: 1 G/KG 2/D FOR 5 D EVERY 4 WK FOR 3 COURSES OF TREATMENT, Promoter: NONE USED", "result": "60/137 (44%), 18/30 (60%), -36%, not calculated"}]}]}
